In this test the test system is Rattus norvegicus. The test can be described thus: Antiedemic activity against […]-induced paw edema in sc dosed Albino rat. It is filed as functional.

A word on the ED50: it is the midpoint of the dose-response relation. For the compound `COC(=O)[C@@]1(C)CC[C@]2(C(=O)O)CC[C@]3(C)C(=C[C@@H](O)[C@@H]4[C@@]5(C)C[C@H](O)[C@H](O)[C@@](C)(C=O)[C@@H]5CC[C@]43C)[C@H]2C1`, the ED50 came to 10 mg/kg.
The result for `COC(=O)[C@@]1(C)CC[C@]2(C(=O)O)CC[C@]3(C)C(=CC[C@@H]4[C@@]5(C)C[C@H](O)[C@H](O)[C@@](C)(C=O)[C@@H]5CC[C@]43C)[C@H]2C1` reads 10 mg/kg; that for `C[C@]12CCC(=O)C=C1CC[C@@H]1[C@@H]2C(=O)C[C@@]2(C)[C@H]1CC[C@]2(O)C(=O)CO` [CORTISONE], 30 mg/kg; that for `C[C@]12C=CC(=O)C=C1CC[C@@H]1[C@@H]2[C@@H](O)C[C@@]2(C)[C@H]1CC[C@]2(O)C(=O)CO` [PREDNISOLONE], 60 mg/kg.

(Values after ChEMBL document CHEMBL1146580, “Acinospesigenin-A, -B, and -C: three new triterpenoids from Phytolacca acinosa” (2003).)
